Legend:
[1] = biological target: T1, Beta-3 adrenergic receptor (Homo sapiens, UniProt P13945); assay: Displacement of [125I]iodocyanopindolol from human adrenergic beta-3 receptor at 1 uM
Target sequence in this assay (P13945 whole entry, looked up): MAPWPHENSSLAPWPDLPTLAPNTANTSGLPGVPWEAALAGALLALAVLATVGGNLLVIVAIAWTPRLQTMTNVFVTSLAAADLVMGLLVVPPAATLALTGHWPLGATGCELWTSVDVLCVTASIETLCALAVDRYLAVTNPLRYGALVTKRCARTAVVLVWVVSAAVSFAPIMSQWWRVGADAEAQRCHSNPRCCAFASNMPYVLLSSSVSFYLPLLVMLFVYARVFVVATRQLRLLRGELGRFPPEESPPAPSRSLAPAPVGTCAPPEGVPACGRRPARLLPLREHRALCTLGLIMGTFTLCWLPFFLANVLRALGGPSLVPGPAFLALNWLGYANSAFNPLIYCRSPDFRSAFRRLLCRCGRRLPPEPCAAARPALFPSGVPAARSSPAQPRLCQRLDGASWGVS

[2] = biological target: T1, Beta-3 adrenergic receptor; assay: Displacement of [125I]iodocyanopindolol from human adrenergic beta-3 receptor at 10 uM
Target sequence in this assay (P13945 whole entry, looked up): as above

[3] = biological target: T1, Beta-3 adrenergic receptor; assay: Displacement of [125I]iodocyanopindolol from human adrenergic beta-3 receptor
Target sequence in this assay (P13945 whole entry): as the sequence (P13945 whole entry, looked up) above

[4] = Selectivity ratio of EC50 for adrenergic beta-1 receptor to EC50 for human adrenergic beta-3 receptor
[5] = biological target: T1, Beta-3 adrenergic receptor; assay: Agonist activity at adrenergic beta-3 receptor in human SK-N-MC cells; type: functional, cell-based
Target sequence in this assay (P13945 whole entry): as the sequence (P13945 whole entry, looked up) above

[6] = biological target: Beta-2 adrenergic receptor (Homo sapiens, UniProt P07550); assay: Agonist activity at adrenergic beta-2 receptor; type: functional
[7] = Selectivity ratio of EC50 for adrenergic beta-2 receptor to EC50 for human adrenergic beta3 receptor
[8] = biological target: Beta-1 adrenergic receptor (Homo sapiens, UniProt P08588); assay: Agonist activity at adrenergic beta-1 receptor; type: functional
Sequence of Beta-1 adrenergic receptor (P08588 whole entry): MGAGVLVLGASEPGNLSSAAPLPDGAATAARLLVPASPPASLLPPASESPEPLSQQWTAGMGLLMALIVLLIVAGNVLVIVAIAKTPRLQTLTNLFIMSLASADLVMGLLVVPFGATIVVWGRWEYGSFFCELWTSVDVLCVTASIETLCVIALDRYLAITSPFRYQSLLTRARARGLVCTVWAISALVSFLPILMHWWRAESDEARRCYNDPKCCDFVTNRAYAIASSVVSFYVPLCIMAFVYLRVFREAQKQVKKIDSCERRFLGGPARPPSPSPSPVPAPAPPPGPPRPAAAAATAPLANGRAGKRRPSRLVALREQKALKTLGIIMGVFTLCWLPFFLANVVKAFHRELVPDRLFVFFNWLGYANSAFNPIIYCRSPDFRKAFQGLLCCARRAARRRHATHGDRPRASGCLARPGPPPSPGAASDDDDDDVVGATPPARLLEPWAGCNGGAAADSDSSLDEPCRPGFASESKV

Sequence of Beta-2 adrenergic receptor (P07550 whole entry): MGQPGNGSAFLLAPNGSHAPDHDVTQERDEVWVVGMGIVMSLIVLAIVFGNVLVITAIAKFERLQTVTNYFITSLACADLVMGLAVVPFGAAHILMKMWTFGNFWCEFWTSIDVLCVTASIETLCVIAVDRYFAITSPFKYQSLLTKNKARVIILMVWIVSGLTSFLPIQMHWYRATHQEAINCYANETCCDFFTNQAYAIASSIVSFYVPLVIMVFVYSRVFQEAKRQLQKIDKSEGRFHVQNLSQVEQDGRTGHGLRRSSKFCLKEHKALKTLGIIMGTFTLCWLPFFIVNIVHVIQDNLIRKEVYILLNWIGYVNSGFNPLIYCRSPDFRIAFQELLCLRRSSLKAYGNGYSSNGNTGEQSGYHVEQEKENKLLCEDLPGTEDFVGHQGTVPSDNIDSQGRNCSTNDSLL

| inhibition [1] [%] | inhibition [2] [%] | Structure (SMILES) | other results |
| --- | --- | --- | --- |
| 9.18 | 11.2 | CCN(CC)CC(O)COc1ccc2c(c1)CCCN2Cc1ccccc1 (stereo not drawn) | – |
| 3.19 | 11.8 | Cc1ccc(N2CCN(CC(O)COc3ccc4c(c3)CCCN4Cc3ccccc3)C(C)C2)cc1 (stereo not drawn) | – |
| 72.8 | 90.6 | COc1ccc(CCNCC(O)COc2ccc3c(c2)CCCN3Cc2ccccc2)cc1OC (stereo not drawn) | IC50 [3]: 550 nM |
| -3.71 | 0.18 | CN1CCN(CC(O)COc2ccc3c(c2)CCCN3Cc2ccccc2)CC1 (stereo not drawn) | – |
| 5.5 | 20.4 | OC(COc1ccc2c(c1)CCCN2Cc1ccccc1)CN1CCN(c2ccccc2F)CC1 (stereo not drawn) | – |
| -2.34 | 11.3 | OC(COc1ccc2c(c1)CCCN2Cc1ccccc1)CN1CCN(c2cccc(Cl)c2)CC1 (stereo not drawn) | – |
| 0.34 | 0.24 | CC(Cc1ccc(O)cc1)N1CCOC(c2ccccc2)C1 (stereo not drawn) | – |
| 6.08 | 4.13 | O=[N+]([O-])c1ccc(N2CCN(CC(O)COc3ccc4c(c3)CCCN4Cc3ccccc3)CC2)cc1 (stereo not drawn) | – |
| 19.2 | 66.3 | CCCNCC(O)COc1ccc2c(c1)CCCN2Cc1ccccc1 (stereo not drawn) | – |
| -0.84 | 17.1 | OC(COc1ccc2c(c1)CCCN2Cc1ccccc1)CN1CCN(Cc2ccccc2)CC1 (stereo not drawn) | – |
| 42.9 | 58.7 | Clc1ccc(CCNCCCOc2ccc3c(c2)CCCN3Cc2ccccc2)cc1 | – |
| 37.8 | 46.7 | COc1ccc(CCN(CC(O)COc2ccc3c(c2)CCCN3Cc2ccccc2)C(=O)OC(C)(C)C)cc1OC (stereo not drawn) | – |
| 6.72 | 1.95 | COc1ccc(N2CCN(CCCOc3ccc4c(c3)CCCN4Cc3ccccc3)CC2)cc1 | – |
| 55.8 | 63.1 | OC(CNCCc1ccc(Cl)cc1)COc1ccc2c(c1)CCCN2Cc1ccccc1 (stereo not drawn) | – |
| -2.05 | 23.5 | OC(COc1ccc2c(c1)CCCN2Cc1ccccc1)CN1CCC(Cc2ccccc2)CC1 (stereo not drawn) | – |
| 33.1 | 56.5 | COc1ccc(CCNCC(O)COc2ccc3c(c2)CCCN3)cc1OC (stereo not drawn) | – |
| -5.28 | 18.1 | OC(COc1ccc2c(c1)CCCN2Cc1ccccc1)CN1CCN(Cc2ccc3c(c2)OCO3)CC1 (stereo not drawn) | – |
| 45.1 | 49.8 | COc1ccc(N2CCN(CC(O)COc3ccc4c(c3)CCCN4Cc3ccccc3)CC2)cc1 (stereo not drawn) | – |
| 26.5 | 38.9 | COc1ccc(CCNCC(O)COc2ccc3c(c2)CCCN3S(=O)(=O)c2ccccc2)cc1OC (stereo not drawn) | – |
| 4.09 | 14.7 | CCCCN(CCCC)CC(O)COc1ccc2c(c1)CCCN2Cc1ccccc1 (stereo not drawn) | – |

| inhibition [1] [%] | inhibition [2] [%] | Structure (SMILES) | other results |
| --- | --- | --- | --- |
| 46.4 | 50.5 | OC(COc1ccc2c(c1)CCCN2Cc1ccccc1)CN1CCC(O)(c2ccccc2)CC1 (stereo not drawn) | – |
| 45.9 | 52.2 | OC(COc1ccc2c(c1)CCCN2Cc1ccccc1)CN1CCN(c2ccccc2)CC1 (stereo not drawn) | – |
| 7.71 | 27.5 | CC(NCC(O)COc1ccc2c(c1)CCCN2Cc1ccccc1)c1ccccc1 (stereo not drawn) | – |
| 5.32 | 12.7 | OC(COc1ccc2c(c1)CCCN2Cc1ccccc1)CN1CCN(c2ccccn2)CC1 (stereo not drawn) | – |
| -9.63 | 9.42 | CC(Cc1ccc(OCC(=O)O)cc1)N1CCOC(c2ccccc2)C1 (stereo not drawn) | – |
| -4.54 | 2.54 | CN(Cc1ccccc1)CC(O)COc1ccc2c(c1)CCCN2Cc1ccccc1 (stereo not drawn) | – |
| 3.61 | 0.08 | CC1CN(c2ccc(Cl)cc2)CCN1CC(O)COc1ccc2c(c1)CCCN2Cc1ccccc1 (stereo not drawn) | – |
| -7.18 | 0.28 | OC(COc1ccc2c(c1)CCCN2Cc1ccccc1)CN1CCN(c2ccc(Cl)c(Cl)c2)CC1 (stereo not drawn) | – |
| 23.2 | 28.1 | COc1ccc(CCN(CC(O)COc2ccc3c(c2)CCCN3)C(=O)OC(C)(C)C)cc1OC (stereo not drawn) | – |
| 1.81 | 19 | OC(CNCc1ccccc1)COc1ccc2c(c1)CCCN2Cc1ccccc1 (stereo not drawn) | – |
| 5.62 | 16.2 | CCCNCCCOc1ccc2c(c1)CCCN2Cc1ccccc1 | – |
| 9.26 | 27.4 | COc1ccc(CNCC(O)COc2ccc3c(c2)CCCN3Cc2ccccc2)cc1 (stereo not drawn) | – |
| 4.27 | 31.4 | OC(COc1ccc2c(c1)CCCN2Cc1ccccc1)CN1CCCCC1 (stereo not drawn) | – |
| -1.79 | 12.8 | CC1CCN(CC(O)COc2ccc3c(c2)CCCN3Cc2ccccc2)CC1 (stereo not drawn) | – |
| 49.7 | 68.8 | OC(COc1ccc2c(c1)CCCN2Cc1ccccc1)CN1CCN(c2ccc(F)cc2)CC1 (stereo not drawn) | IC50 [3]: 1760 nM |
| 8.17 | 18.1 | Cc1ccc(CCNCC(O)COc2ccc3c(c2)CCCN3Cc2ccccc2)cc1 (stereo not drawn) | – |
| – | -1.36 | CCOC(=O)COc1ccc(CC(C)N2CCOC(c3ccccc3)C2)cc1 (stereo not drawn) | – |
| 12.2 | 14.5 | COc1ccccc1N1CCN(CC(O)COc2ccc3c(c2)CCCN3Cc2ccccc2)CC1 (stereo not drawn) | – |
| 59.7 | 83.2 | CC(C)NCC(O)COc1ccc2c(c1)CCCN2Cc1ccccc1 (stereo not drawn) | Ratio EC50 [4]: 2.3; EC50 [5]: 883 nM; EC50 [6]: 1160 nM; IC50 [3]: 590 nM; Ratio EC50 [7]: 1.31; EC50 [8]: 2030 nM |
| 56.2 | 76.5 | COc1ccc(CCNCC(O)COc2ccc3c(c2)CCCN3Cc2ccccc2)cc1 (stereo not drawn) | Ratio EC50 [4]: 1.47; EC50 [5]: 4880 nM; EC50 [6]: 5900 nM; IC50 [3]: 1180 nM; Ratio EC50 [7]: 1.2; EC50 [8]: 7280 nM |
